Counter-ions that a name gives are not always drawn.
Legend:
NLRP3 [1] = biological target: T1, NLRP3 (Homo sapiens, UniProt Q96P20); assay: THP-1 cells pyroptosis assay (LPS-primed, nigericin-triggered, resazurin readout); format: cell-based; design: Seed THP-1 cells (25,000 cells/well) containing 1.0 μg/ml LPS in 40 μl of RPMI medium; host or cells: THP-1 cells, LPS-primed, nigericin-triggered; settings: NLRP3 inhibitory activity in THP-1 cells, 1.0 μg/ml LPS, 5 μM nigericin
Procedure: THP-1 cells (ATCC #TIB-202) were grown in RPMI containing L-glutamine (Gibco #11835) supplemented with ImM sodium pyruvate (Sigma #S8636) and penicillin (100 units/ml)/streptomycin (0.1 mg/ml) (Sigma #P4333) in 10% Fetal Bovine Serum (FBS) (Sigma #F0804). The cells were routinely passaged and grown to confluency ([…]). On the day of the experiment, THP-1 cells were harvested and resuspended into RPMI medium (without FBS). The cells were then counted and viability (>90%) checked by Trypan blue (Sigma #T8154). Appropriate dilutions were made to give a concentration of 625,000 cells/ml. To this diluted cell solution was added LPS (Sigma #L4524) to give a 1 μg/ml Final Assay Concentration (FAC). […] of the final preparation was aliquoted into each well of a 96-well plate. The plate thus prepared was used for compound screening.
The following method step-by-step assay was followed for compound screening. • 1. Seed THP-1 cells (25,000 cells/well) containing 1.0 μg/ml LPS in 40 μl of RPMI medium (without FBS) in 96-well, black walled, clear bottom cell culture plates coated with poly-D-lysine (VWR #734-0317) • 2. Add 5 μl compound (8 points half-log dilution, with 10 μM top dose) or vehicle (DMSO 0.1% FAC) to the appropriate wells • 3. Incubate for 3 hrs at 37° C. in 5% CO2 • 4. Add 5 μl nigericin (Sigma #N7143) (FAC 5 μM) to all wells • 5. Incubate for 1 hr at 37° C. and 5% CO2 • 6. At the end of the incubation period, spin plates at 300×g for 3 mins and remove supernatant • 7. Then add 50 μl of resazurin (Sigma #R7017) (FAC 100 μM resazurin in RPMI medium without FBS) and incubate plates for a further 1-2 hrs at 37° C. and 5% CO2 • 8. Plates were read in an Envision reader at Ex 560 nm and Em 590 nm • 9. IC50 data is fitted to a non-linear regression equation (log inhibitor vs response-variable slope 4-parameters)

NLRP3 [2] = biological target: T1, NLRP3; assay: Human whole blood IL-1β release assay (LPS + nigericin, AlphaLisa); format: cell-based; design: Plate out 80 μl of whole blood containing 1 μg/ml of LPS in 96-well, clear bottom cell culture plate; from tissue; host or cells: human whole blood from healthy donors (Li-heparin); settings: NLRP3 inhibitory activity in human whole blood, 1 μg/ml LPS, 10 μM nigericin, read-out: HWB IC50
Procedure: For systemic delivery, the ability to inhibit NLRP3 when the compounds are present within the bloodstream is of great importance. For this reason, the NLRP3 inhibitory activity of a number of compounds in human whole blood was investigated in accordance with the following protocol.
Human whole blood in Li-heparin tubes was obtained from healthy donors from a volunteer donor panel. • 1. Plate out 80 μl of whole blood containing 1 μg/ml of LPS in 96-well, clear bottom cell culture plate (Corning #3585) • 2. Add 10 μl compound (8 points half-log dilution with 10 μM top dose) or vehicle (DMSO 0.1% FAC) to the appropriate wells • 3. Incubate for 3 hrs at 37° C., 5% CO2 • 4. Add 10 μl nigericin (Sigma #N7143) (10 μM FAC) to all wells • 5. Incubate for 1 hr at 37° C., 5% CO2 • 6. At the end of the incubation period, spin plates at 300×g for 5 mins to pellet cells and remove 20 μl of supernatant and add to 96-well v-bottom plates for IL-1β analysis (note: these plates containing the supernatants can be stored at −80° C. to be analysed at a later date) • 7. IL-1β was measured according to the manufacturer protocol (Perkin Elmer-AlphaLisa IL-1 Kit AL220F-5000) • 8. IC50 data is fitted to a non-linear regression equation (log inhibitor vs response-variable slope 4-parameters)

T1 sequence (Q96P20 whole entry): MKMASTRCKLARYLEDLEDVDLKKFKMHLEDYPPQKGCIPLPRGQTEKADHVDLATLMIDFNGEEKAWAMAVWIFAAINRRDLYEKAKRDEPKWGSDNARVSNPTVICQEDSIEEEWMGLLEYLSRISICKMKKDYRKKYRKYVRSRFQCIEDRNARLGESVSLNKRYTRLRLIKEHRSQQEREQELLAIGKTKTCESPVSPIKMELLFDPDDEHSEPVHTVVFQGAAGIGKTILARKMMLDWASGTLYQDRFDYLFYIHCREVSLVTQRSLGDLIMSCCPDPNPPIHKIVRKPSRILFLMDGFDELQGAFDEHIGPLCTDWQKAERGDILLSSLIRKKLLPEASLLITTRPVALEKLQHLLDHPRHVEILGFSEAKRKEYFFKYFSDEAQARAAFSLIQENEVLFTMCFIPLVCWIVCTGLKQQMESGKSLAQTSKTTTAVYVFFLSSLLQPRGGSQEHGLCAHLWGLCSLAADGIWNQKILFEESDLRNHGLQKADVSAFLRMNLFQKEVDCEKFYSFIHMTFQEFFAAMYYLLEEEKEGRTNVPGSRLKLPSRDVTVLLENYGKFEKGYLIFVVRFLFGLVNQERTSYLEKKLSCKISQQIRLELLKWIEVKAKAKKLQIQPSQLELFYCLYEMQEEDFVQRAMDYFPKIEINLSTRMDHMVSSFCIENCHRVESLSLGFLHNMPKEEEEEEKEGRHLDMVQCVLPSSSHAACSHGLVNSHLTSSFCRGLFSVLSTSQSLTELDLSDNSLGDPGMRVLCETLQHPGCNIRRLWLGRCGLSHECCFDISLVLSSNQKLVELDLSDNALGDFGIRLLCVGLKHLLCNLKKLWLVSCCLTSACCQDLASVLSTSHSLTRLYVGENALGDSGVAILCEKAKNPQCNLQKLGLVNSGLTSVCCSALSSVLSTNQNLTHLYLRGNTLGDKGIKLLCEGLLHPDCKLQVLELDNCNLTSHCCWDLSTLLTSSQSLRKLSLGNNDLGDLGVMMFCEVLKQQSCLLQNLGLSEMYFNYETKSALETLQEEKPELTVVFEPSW

IC50 (NLRP3 [1]) [µM]	IC50 (NLRP3 [2]) [µM]	Structure (SMILES)
≤ 1	> 10	O=C(Nc1c2c(cc3c1CCC3)CCC2)NS(=O)(=O)Cc1ccc(Cl)c(Cl)c1 [Example 6, 1-(3,4-Dichlorophenyl)-N-((1,2,3,5,6,7-hexahydro-s-indacen-4-yl)carbamoyl)methanesulfonamide, Sodium Salt]
≤ 1	7.5 to 10	COc1cccc(CS(=O)(=O)NC(=O)Nc2c3c(cc4c2CCC4)CCC3)c1 [Example 11, N-((1,2,3,5,6,7-Hexahydro-s-indacen-4-yl)carbamoyl)-1-(3-methoxyphenyl)methanesulfonamide, Sodium Salt]
≤ 1	> 10	O=C(Nc1c2c(cc3c1CCC3)CCC2)NS(=O)(=O)Cc1cccc(Br)c1 [Example 19, 1-(3-Bromophenyl)-N-((1,2,3,5,6,7-hexahydro-s-indacen-4-yl)carbamoyl)methanesulfonamide, Sodium Salt]
≤ 1	> 10	O=C(Nc1c2c(cc3c1CCC3)CCC2)NS(=O)(=O)Cc1ccc(Cl)cc1F [Example 12, 1-(4-Chloro-2-fluorophenyl)-N-((1,2,3,5,6,7-hexahydro-s-indacen-4-yl)carbamoyl)methanesulfonamide, Sodium Salt]
≤ 1	–	COC(=O)c1ccccc1CS(=O)(=O)NC(=O)Nc1c2c(cc3c1CCC3)CCC2 [Example 18, Methyl 2-((N-((1,2,3,5,6,7-hexahydro-s-indacen-4-yl)carbamoyl)sulfamoyl)methyl)benzoate]
≤ 1	≤ 5	O=C(Nc1c2c(cc3c1CCC3)CCC2)NS(=O)(=O)Cc1ccc(F)cc1 [Example 7, 1-(4-Fluorophenyl)-N-((1,2,3,5,6,7-hexahydro-s-indacen-4-yl)carbamoyl)methanesulfonamide, Sodium Salt]
2 to 10	–	CC(C)c1cc(F)cc(-c2ccnc(C#N)c2)c1NC(=O)NS(=O)(=O)C(C)c1ccccc1 (stereo not shown) [Example 34, N-((2-(2-Cyanopyridin-4-yl)-4-fluoro-6-isopropylphenyl)carbamoyl)-1-phenylethanesulfonamide]
≤ 1	5 to 7.5	O=C(Nc1c2c(cc3c1CCC3)CCC2)NS(=O)(=O)Cc1ccc(C(F)(F)F)cc1 [Example 10, N-((1,2,3,5,6,7-Hexahydro-s-indacen-4-yl)carbamoyl)-1-(4-(trifluoromethyl)phenyl)methanesulfonamide, Sodium Salt]
≤ 1	> 10	O=C(Nc1c2c(cc3c1CCC3)CCC2)NS(=O)(=O)CCc1ccccc1 [Example 40, N-((1,2,3,5,6,7-Hexahydro-s-indacen-4-yl)carbamoyl)-2-phenylethanesulfonamide]
≤ 1	5 to 7.5	Cc1cccc(CS(=O)(=O)NC(=O)Nc2c3c(cc4c2CCC4)CCC3)c1 [Example 20, N-((1,2,3,5,6,7-Hexahydro-s-indacen-4-yl)carbamoyl)-1-(m-tolyl)methanesulfonamide, Sodium Salt]
≤ 1	5 to 7.5	O=C(Nc1c2c(cc3c1CCC3)CCC2)NS(=O)(=O)Cc1ccc(Cl)cc1 [Example 5, 1-(4-Chlorophenyl)-N-((1,2,3,5,6,7-hexahydro-s-indacen-4-yl)carbamoyl)methanesulfonamide, Sodium Salt]
≤ 1	≤ 5	O=C(Nc1c2c(cc3c1CCC3)CCC2)NS(=O)(=O)Cc1ccccc1 [Example 1, N-((1,2,3,5,6,7-Hexahydro-s-indacen-4-yl)carbamoyl)-1-phenyl Methanesulfonamide, Potassium Salt]
≤ 1	≤ 5	N#Cc1ccc(CS(=O)(=O)NC(=O)Nc2c3c(cc4c2CCC4)CCC3)cc1 [Example 8, 1-(4-Cyanophenyl)-N-((1,2,3,5,6,7-hexahydro-s-indacen-4-yl)carbamoyl)methanesulfonamide, Sodium Salt]
≤ 1	≤ 5	C=CS(=O)(=O)NC(=O)Nc1c2c(cc3c1CCC3)CCC2 [Example 3, N-((1,2,3,5,6,7-Hexahydro-s-indacen-4-yl)carbamoyl)ethenesulfonamide]
≤ 1	> 10	O=C(Nc1c2c(cc3c1CCC3)CCC2)NS(=O)(=O)Cc1ccccc1Cl [Example 15, 1-(2-Chlorophenyl)-N-((1,2,3,5,6,7-hexahydro-s-indacen-4-yl)carbamoyl)methanesulfonamide, Sodium Salt]
≤ 1	–	O=C(Nc1c2c(cc3c1CCC3)CCC2)NS(=O)(=O)Cc1ccccc1C(F)(F)F [Example 16, N-((1,2,3,5,6,7-Hexahydro-s-indacen-4-yl)carbamoyl)-1-(2-(trifluoromethyl)phenyl)methanesulfonamide, Sodium Salt]
≤ 1	7.5 to 10	CC(c1ccccc1)S(=O)(=O)NC(=O)Nc1c2c(cc3c1CCC3)CCC2 (stereo not shown) [Example 39, N-((1,2,3,5,6,7-Hexahydro-s-indacen-4-yl)carbamoyl)-1-phenylethanesulfonamide]
–	5 to 7.5	O=C(Nc1c(-c2ccncc2)cc(F)c2c1CCC2)NS(=O)(=O)CCc1ccccc1 [Example 33, N-((7-Fluoro-5-(pyridin-4-yl)-2,3-dihydro-1H-inden-4-yl)carbamoyl)-2-phenylethanesulfonamide]
≤ 1	> 10	O=C(Nc1c2c(cc3c1CCC3)CCC2)NS(=O)(=O)Cc1cc(Cl)cc(Cl)c1 [Example 4, 1-(3,5-Dichlorophenyl)-N-((1,2,3,5,6,7-hexahydro-s-indacen-4-yl)carbamoyl)methanesulfonamide, Sodium Salt]
≤ 1	–	O=C(Nc1c2c(cc3c1CCC3)CCC2)NS(=O)(=O)Cc1ccccc1Br [Example 17, 1-(2-Bromophenyl)-N-((1,2,3,5,6,7-hexahydro-s-indacen-4-yl)carbamoyl)methanesulfonamide, Sodium Salt]
2 to 10	–	O=C(Nc1c(-c2ccncc2)cc(F)c2c1CCC2)NS(=O)(=O)Cc1ccccc1 [Example 25, N-((7-Fluoro-5-(pyridin-4-yl)-2,3-dihydro-1H-inden-4-yl)carbamoyl)-1-phenylmethanesulfonamide]
≤ 1	–	CC(C)CS(=O)(=O)NC(=O)Nc1c2c(cc3c1CCC3)CCC2 [Example 2, N-((1,2,3,5,6,7-Hexahydro-s-indacen-4-yl)carbamoyl)-2-methylpropane-1-sulfonamide, Potassium Salt]
≤ 1	> 10	O=C(Nc1c2c(cc3c1CCC3)CCC2)NS(=O)(=O)Cc1ccc(Cl)c(F)c1 [Example 13, 1-(4-Chloro-3-fluorophenyl)-N-((1,2,3,5,6,7-hexahydro-s-indacen-4-yl)carbamoyl)methanesulfonamide, Sodium Salt]
≤ 1	≤ 5	[N-]=[N+]=NCCCS(=O)(=O)NC(=O)Nc1c2c(cc3c1CCC3)CCC2 [Example 21, 3-Azido-N-((1,2,3,5,6,7-hexahydro-s-indacen-4-yl)carbamoyl) propane-1-sulfonamide, Potassium Salt]
≤ 1	≤ 5	COC(=O)c1ccc(CS(=O)(=O)NC(=O)Nc2c3c(cc4c2CCC4)CCC3)cc1 [Example 9, Methyl 4-((N-((1,2,3,5,6,7-hexahydro-s-indacen-4-yl)carbamoyl)sulfamoyl)methyl)benzoate, Sodium Salt]
